Several values for one entry are separate records, joined by “and”; a condition that tells them apart may be missing. Equal entries are not always repeated. Inconclusive results and toxic doses are left out. Rule as the data show it: active = T/C of 150% or more; inactive = T/C below 125%.
Tested on: L1210 leukemia ip in BDF1 mice, survival T/C
Assay: NCI In Vivo Anticancer Drug Screen. Data for tumor model L1210 Leukemia (intraperitoneal) in B6D2F1 (BDF1) mice
Conditions: endpoint: mean survival time, higher = longer survival
Summary of the method: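 In this screen, tumor-bearing mice given compound are compared to those given vehicle, and their survival values are reported as a treated-to-control quotient.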

[1] = dose: 100.0 mg/kg/injection, schedule: Q04DX002 (ip), vehicle: saline with Tween-80
[2] = dose: 200.0 mg/kg/injection, schedule: Q04DX002 (ip), vehicle: saline with Tween-80
[3] = dose: 400.0 mg/kg/injection, schedule: Q04DX002 (ip), vehicle: saline with Tween-80
[4] = dose: 100.0 mg/kg/injection, schedule: Q04DX003 (ip), vehicle: saline
[5] = dose: 200.0 mg/kg/injection, schedule: Q04DX003 (ip), vehicle: saline
[6] = dose: 400.0 mg/kg/injection, schedule: Q04DX003 (ip), vehicle: saline
[7] = dose: 100.0 mg/kg/injection, schedule: Q01DX009 (ip), vehicle: Klucel (hydroxypropylcellulose) (HPC)
[8] = dose: 100.0 mg/kg/injection, schedule: Q04DX003 (ip), vehicle: Klucel (hydroxypropylcellulose) (HPC)
[9] = dose: 200.0 mg/kg/injection, schedule: Q01DX009 (ip), vehicle: Klucel (hydroxypropylcellulose) (HPC)
[10] = dose: 200.0 mg/kg/injection, schedule: Q04DX003 (ip), vehicle: Klucel (hydroxypropylcellulose) (HPC)
[11] = dose: 400.0 mg/kg/injection, schedule: Q01DX009 (ip), vehicle: Klucel (hydroxypropylcellulose) (HPC)
[12] = dose: 400.0 mg/kg/injection, schedule: Q04DX003 (ip), vehicle: Klucel (hydroxypropylcellulose) (HPC)
[13] = dose: 100.0 mg/kg/injection, schedule: Q01DX009 (ip), vehicle: acetone
[14] = dose: 200.0 mg/kg/injection, schedule: Q01DX009 (ip), vehicle: acetone
[15] = dose: 400.0 mg/kg/injection, schedule: Q01DX009 (ip), vehicle: acetone

Measured: T/C

CCOC(=O)c1ccc(Nc2sc(C(=O)c3ccccc3)c(N)c2C#N)cc1
inactive: [1] 120 % of control | [2] 92 % of control | [3] 89 % of control

O=c1oc2c(Cl)cc(Cl)cc2cc1-c1nc2ccccc2[nH]1
inactive: [1] 100 % of control | [2] 93 % of control | [3] 96 % of control

CCCCN1C(=O)CSC1=S
inactive: dose: 100.0 mg/kg/injection, schedule: Q04DX002 (ip), vehicle: Klucel (hydroxypropylcellulose) (HPC) 97 % of control | dose: 200.0 mg/kg/injection, schedule: Q04DX002 (ip), vehicle: Klucel (hydroxypropylcellulose) (HPC) 113 % of control | dose: 400.0 mg/kg/injection, schedule: Q04DX002 (ip), vehicle: Klucel (hydroxypropylcellulose) (HPC) 100 % of control

O=C(Nc1ccccc1)OCC(F)(F)F
inactive: dose: 100.0 mg/kg/injection, schedule: Q04DX002 (ip), vehicle: gum acacia 105 % of control | dose: 200.0 mg/kg/injection, schedule: Q04DX002 (ip), vehicle: gum acacia 108 % of control | dose: 400.0 mg/kg/injection, schedule: Q04DX002 (ip), vehicle: gum acacia 101 % of control

COc1cccc2c1C(=O)c1c(O)c3c(c(O)c1C2=O)C[C@@](O)(C(=O)CO)C[C@@H]3OC1CC(NC(=S)Nc2ccc(F)cc2)C(O)C(C)O1 (stereo partly drawn)
inactive: [4] 111 % of control | [5] 106 % of control | [6] 104 % of control

O=C(Cn1ccc(=O)[nH]c1=O)N1CCC2(CC1)SSC1(CCN(C(=O)Cn3ccc(=O)[nH]c3=O)CC1)S2
inactive: dose: 100.0 mg/kg/injection, schedule: Q01DX009 (ip), vehicle: saline 106 % of control | [4] 97 % of control | dose: 200.0 mg/kg/injection, schedule: Q01DX009 (ip), vehicle: saline 98 % of control | [5] 95 % of control | dose: 400.0 mg/kg/injection, schedule: Q01DX009 (ip), vehicle: saline 93 % of control | [6] 92 % of control

CC(=O)c1cccc(NC(=O)Oc2cc(=O)oc3ccccc23)c1
inactive: dose: 25.0 mg/kg/injection, schedule: Q01DX009 (ip), vehicle: Klucel (hydroxypropylcellulose) (HPC) 92 % of control | dose: 50.0 mg/kg/injection, schedule: Q01DX009 (ip), vehicle: Klucel (hydroxypropylcellulose) (HPC) 101 % of control | [7] 101 % of control

CCOc1ccc([N+](=O)[O-])cn1
inactive: [7] 101 % of control | [8] 93 % of control | [9] 102 % of control | [10] 104 % of control | [11] 106 % of control | [12] 93 % of control

CCCCCCCCCCCCCCCCC1(c2ccccc2)NC(=O)NC1=O (stereo not drawn)
inactive: [8] 93 % of control | [10] 95 % of control | [12] 98 % of control

Cc1ccc(CNC(=S)Nc2ccccc2)cc1
inactive: dose: 1.56 mg/kg/injection, schedule: Q01DX009 (ip), vehicle: Klucel (hydroxypropylcellulose) (HPC) 107 % of control | dose: 3.12 mg/kg/injection, schedule: Q01DX009 (ip), vehicle: Klucel (hydroxypropylcellulose) (HPC) 104 % of control | dose: 6.25 mg/kg/injection, schedule: Q01DX009 (ip), vehicle: Klucel (hydroxypropylcellulose) (HPC) 96 % of control and 100 % of control | [8] 96 % of control | [10] 96 % of control | [12] 92 % of control

O=C(NCCCl)NC1CCCCCC1
inactive: [7] 101 % of control | [9] 108 % of control | [11] 100 % of control

CC1CCCCC12C(=O)NC(=S)NC2=O (stereo not drawn)
inactive: dose: 75.0 mg/kg/injection, schedule: Q01DX001 (ip), vehicle: other 112 % of control | dose: 150.0 mg/kg/injection, schedule: Q01DX001 (ip), vehicle: other 98 % of control | dose: 300.0 mg/kg/injection, schedule: Q01DX001 (ip), vehicle: other 101 % of control

O=[N+]([O-])c1ccc(C(Br)C(Br)c2ccccc2Cl)cc1 (stereo not drawn)
inactive: [7] 96 % of control | [8] 110 % of control | [9] 98 % of control | [10] 100 % of control | [11] 93 % of control | [12] 94 % of control

c1ccc(P(CCP(CCP(c2ccccc2)c2ccccc2)c2ccccc2)CCP(c2ccccc2)c2ccccc2)cc1 (stereo not drawn)
inactive: [1] 90 % of control | dose: 100.0 mg/kg/injection, schedule: Q04DX002 (ip), vehicle: saline 101 % of control | [8] 95 % of control and 101 % of control | [2] 96 % of control | dose: 200.0 mg/kg/injection, schedule: Q04DX002 (ip), vehicle: saline 96 % of control | [10] 96 % of control and 102 % of control | [3] 93 % of control | dose: 400.0 mg/kg/injection, schedule: Q04DX002 (ip), vehicle: saline 101 % of control | [12] 93 % of control

CCCCCCc1c(N)nc(N)[nH]c1=O
inactive: dose: 100.0 mg/kg/injection, schedule: Q01DX001 (ip), vehicle: saline with Tween-80 98 % of control | dose: 200.0 mg/kg/injection, schedule: Q01DX001 (ip), vehicle: saline with Tween-80 89 % of control | dose: 400.0 mg/kg/injection, schedule: Q01DX001 (ip), vehicle: saline with Tween-80 98 % of control

CCc1ccc(/C(C#N)=C/c2cccc3ccccc23)cc1
inactive: dose: 100.0 mg/kg/injection, schedule: Q04DX002 (ip), vehicle: alcohol 97 % of control | dose: 200.0 mg/kg/injection, schedule: Q04DX002 (ip), vehicle: alcohol 105 % of control | dose: 400.0 mg/kg/injection, schedule: Q04DX002 (ip), vehicle: alcohol 91 % of control

CCOC(=O)c1ccc(NP(=S)(OCC)OCC)cc1
inactive: dose: 50.0 mg/kg/injection, schedule: Q01DX009 (ip), vehicle: saline with Tween-80 94 % of control | dose: 100.0 mg/kg/injection, schedule: Q01DX009 (ip), vehicle: saline with Tween-80 94 % of control | dose: 200.0 mg/kg/injection, schedule: Q01DX009 (ip), vehicle: saline with Tween-80 96 % of control

C(COC1CC2CC1C1C2CC2OC21)OC1CC2CC1C1C2CC2OC21 (stereo not drawn)
inactive: dose: 50.0 mg/kg/injection, schedule: Q01DX001 (ip), vehicle: carboxymethylcellulose (CMC) 96 % of control | dose: 100.0 mg/kg/injection, schedule: Q01DX001 (ip), vehicle: carboxymethylcellulose (CMC) 98 % of control | dose: 200.0 mg/kg/injection, schedule: Q01DX001 (ip), vehicle: carboxymethylcellulose (CMC) 96 % of control | dose: 400.0 mg/kg/injection, schedule: Q01DX001 (ip), vehicle: carboxymethylcellulose (CMC) 102 % of control

BrC#CC1=CCCCC1
inactive: [13] 88 % of control | [4] 105 % of control | [14] 86 % of control | [5] 103 % of control | [15] 108 % of control | [6] 107 % of control

O=[N+]([O-])c1cc(Cl)ccc1S(=O)(=O)CC(Cl)c1ccccc1 (stereo not drawn)
inactive: dose: 100.0 mg/kg/injection, schedule: Q01DX001 (ip), vehicle: acetone 104 % of control | [13] 98 % of control | dose: 100.0 mg/kg/injection, schedule: Q04DX003 (ip), vehicle: acetone 108 % of control | dose: 200.0 mg/kg/injection, schedule: Q01DX001 (ip), vehicle: acetone 104 % of control | [14] 87 % of control and 88 % of control | dose: 200.0 mg/kg/injection, schedule: Q04DX003 (ip), vehicle: acetone 100 % of control | dose: 400.0 mg/kg/injection, schedule: Q01DX001 (ip), vehicle: acetone 101 % of control | [15] 106 % of control and 92 % of control | dose: 400.0 mg/kg/injection, schedule: Q04DX003 (ip), vehicle: acetone 100 % of control
